According to PubChem BioAssay AID2060346 (Molecular Pharmacology Branch, DTP, NCI, 2025):

Test system: CN0375-F725-PDC multi-cell spheroids, viability
Test: Anticancer human tumor CN0375-F725-PDC patient-derived colon carcinoma cell line growth inhibition [TAK]
Settings: for IC50: curve of first compound; for viability, T/C: stronger effect = lower value; active = viability on the fitted dose curve at most 10% of control; inactive = the rest
Excerpt: Combinatorial screen of targeted agents with TAK-243 and ipatasertib in multi-cell type tumor spheroids
A high-throughput screen of multi-cell type tumor spheroids was designed to identify active combinations of targeted small molecules and TAK-243 or ipatasertib. Complex spheroids include a stromal component modeled by human endothelial cells (HUVEC) and fibroblasts modeled by human mesenchymal stem cells (MSCs). The concentration ranges selected for each drug and investigational agent were based upon clinically achievable concentrations if the clinical Cmax of the agent was known.
Compounds. The drugs and investigational agents: TAK-243 (785004), ipatasertib (767898), everolimus (733504), selumetinib (741078), bortezomib (756655), trametinib (758246), ixazomib (758254), vemurafenib (761431), dabrafenib (764134), sapanisertib (764658), alpelisib (765974), and copanlisib (816437), were obtained from the National Cancer Institute (NCI) Developmental Therapeutics Program Chemical Repository. The FDA-approved anticancer drug set is available from the NCI Developmental Therapeutics Program. […] The stock solutions were prepared in dimethyl sulfoxide (DMSO, Sigma-Aldrich, St. Louis, MO, cat. D2650) at 800-fold the tested concentration and stored at -70 degrees C prior to their use. All drugs and investigational agents were tested over a range starting from a high concentration at or near the clinical Cmax and decreasing in half-log increments. If the clinical Cmax for an agent had not been determined, the highest concentration tested was 10 microM.
NCI60 Cell Culture. NCI60 cell lines were obtained from the NCI Developmental Therapeutics Program Tumor Repository. For each lot of cells, the Repository performed Applied Biosystems AmpFLSTR Identifiler testing with PCR amplification to confirm consistency with the published Identifier STR profile for each cell line. Cells were kept in continuous culture for no more than 20 passages. The optimal seeding densities for each of the cell lines at each time point assessed were determined prior to performing the concentration response studies. Briefly, the NCI60 human tumor lines were grown as monolayers in RPMI 1640 medium supplemented with 10% FBS and 2 mmol/L L-glutamine.
An additional 2 lines were from the NCI60 cell line panel including melanomas, MALME-3M and SK-MEL-2. Pooled donor human umbilical vein endothelial cells (HUVEC, Lonza, cat. CC-2519) and human mesenchymal stem cells (hMSC, Lonza, cat. PT-2501) were purchased from Lonza (Walkersville, MD).
PDMR cell lines were grown in complete medium (DC medium): Dulbecco's modified Eagle's medium (DMEM)/F12 supplemented with 5% fetal bovine serum (FBS), 2 mM L-glutamine, 100 U/mL penicillin and 100 µg/ml streptomycin, 0.4 µg/ml hydrocortisone, 10 ng/ml epidermal growth factor (EGF) recombinant human protein, 24 µg/mL adenine, and 0.1 mg/mL primocin. During culture from frozen stock vials, PDMR cells were cultured in the same medium containing 10 µM Y-27632 (see Table 3). The PDCs were cultured in complete DMEM/F12 media without 10 microM Y-27632 dihydrochloride for at least two passages prior to the screen. The pooled donor HUVEC and hMSC were cultured in endothelial cell growth medium 2 (PromoCell, Heidelberg, Germany, cat. C-22011) and mesenchymal stem cell growth medium 2 (PromoCell, cat. C-28009), respectively. For all experiments, HUVEC and hMSC were used at passages </=5.
For the pre-screen, cell seeding densities were determined from a titration spanning the range from 5,000 to 313 cells per well. The mct-spheroids including 60% malignant cells, 25% HUVEC and 15% MSC dispensed as a mixture into U-bottom Ultra-Low Attachment 384-well plates (Corning, NY)
High-throughput Drug Combination Screening.
Prior to their inoculation into 384-well plates, malignant cells, HUVEC, and hMSC were removed from T flasks using TrypLE express (Thermo Fisher Scientific, cat. 12605036) and harvested by centrifugation for 5 min at 233 x g. […]
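Also: spheroids exposed to drugs for seven days.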

COC1CC2CCC(C)C(O)(O2)C(=O)C(=O)N2CCCCC2C(=O)OC(C(C)CC2CCC(OCCO)C(OC)C2)CC(=O)C(C)C=C(C)C(O)C(OC)C(=O)C(C)CC(C)C=CC=CC=C1C (stereo not given) + CC(C)NCC(C(=O)N1CCN(c2ncnc3c2C(C)CC3O)CC1)c1ccc(Cl)cc1
> 0.1 µM: IC50 (second compound 0.3 µM) | IC50 (second compound 0.949 µM) | IC50 (second compound 3 µM) | IC50 (second compound 9.49 µM) | IC50 (second compound 30 µM)
inactive: viability, T/C (second compound 0.3 µM, first compound 0.000316 µM) 97.5% | viability, T/C (second compound 0.3 µM, first compound 0.001 µM) 95.1% | viability, T/C (second compound 0.3 µM, first compound 0.00316 µM) 89.1% | viability, T/C (second compound 0.3 µM, first compound 0.01 µM) 82.5% | viability, T/C (second compound 0.3 µM, first compound 0.0316 µM) 81.1% | viability, T/C (second compound 0.3 µM, first compound 0.1 µM) 81.1% | viability, T/C (second compound 0.949 µM, first compound 0.000316 µM) 99% | viability, T/C (second compound 0.949 µM, first compound 0.001 µM) 94.8% | viability, T/C (second compound 0.949 µM, first compound 0.00316 µM) 84.5% | viability, T/C (second compound 0.949 µM, first compound 0.01 µM) 81.1% | viability, T/C (second compound 0.949 µM, first compound 0.0316 µM) 78.3% | viability, T/C (second compound 0.949 µM, first compound 0.1 µM) 78.2% | viability, T/C (second compound 3 µM, first compound 0.000316 µM) 88.7% | viability, T/C (second compound 3 µM, first compound 0.001 µM) 83.9% | viability, T/C (second compound 3 µM, first compound 0.00316 µM) 83.9% | viability, T/C (second compound 3 µM, first compound 0.01 µM) 77.8% | viability, T/C (second compound 3 µM, first compound 0.0316 µM) 77.4% | viability, T/C (second compound 3 µM, first compound 0.1 µM) 75.9% | viability, T/C (second compound 9.49 µM, first compound 0.000316 µM) 83.3% | viability, T/C (second compound 9.49 µM, first compound 0.001 µM) 84.1% | viability, T/C (second compound 9.49 µM, first compound 0.00316 µM) 80.7% | viability, T/C (second compound 9.49 µM, first compound 0.01 µM) 71.1% | viability, T/C (second compound 9.49 µM, first compound 0.0316 µM) 76% | viability, T/C (second compound 9.49 µM, first compound 0.1 µM) 71% | viability, T/C (second compound 30 µM, first compound 0.000316 µM) 71.3% | viability, T/C (second compound 30 µM, first compound 0.001 µM) 76.8% | viability, T/C (second compound 30 µM, first compound 0.00316 µM) 72.2% | viability, T/C (second compound 30 µM, first compound 0.01 µM) 63.5% | viability, T/C (second compound 30 µM, first compound 0.0316 µM) 75.8% | viability, T/C (second compound 30 µM, first compound 0.1 µM) 68.5%

Cn1cnc2c(F)c(Nc3ccc(Br)cc3Cl)c(C(=O)NOCCO)cc21 + CC(C)NCC(C(=O)N1CCN(c2ncnc3c2C(C)CC3O)CC1)c1ccc(Cl)cc1
inactive: viability, T/C (second compound 0.3 µM, first compound 0.00949 µM) 91.4% | viability, T/C (second compound 0.3 µM, first compound 0.03 µM) 75.3% | viability, T/C (second compound 0.3 µM, first compound 0.0949 µM) 58.8% | viability, T/C (second compound 0.3 µM, first compound 0.3 µM) 50% | viability, T/C (second compound 0.3 µM, first compound 0.949 µM) 38.6% | viability, T/C (second compound 0.3 µM, first compound 3 µM) 30.6% | viability, T/C (second compound 0.949 µM, first compound 0.00949 µM) 83.5% | viability, T/C (second compound 0.949 µM, first compound 0.03 µM) 78.6% | viability, T/C (second compound 0.949 µM, first compound 0.0949 µM) 57.6% | viability, T/C (second compound 0.949 µM, first compound 0.3 µM) 48.3% | viability, T/C (second compound 0.949 µM, first compound 0.949 µM) 36% | viability, T/C (second compound 0.949 µM, first compound 3 µM) 31.1% | viability, T/C (second compound 3 µM, first compound 0.00949 µM) 79.6% | viability, T/C (second compound 3 µM, first compound 0.03 µM) 72% | viability, T/C (second compound 3 µM, first compound 0.0949 µM) 56.9% | viability, T/C (second compound 3 µM, first compound 0.3 µM) 41.4% | viability, T/C (second compound 3 µM, first compound 0.949 µM) 34.2% | viability, T/C (second compound 3 µM, first compound 3 µM) 29.3% | viability, T/C (second compound 9.49 µM, first compound 0.00949 µM) 77.8% | viability, T/C (second compound 9.49 µM, first compound 0.03 µM) 69.4% | viability, T/C (second compound 9.49 µM, first compound 0.0949 µM) 58.2% | viability, T/C (second compound 9.49 µM, first compound 0.3 µM) 42.7% | viability, T/C (second compound 9.49 µM, first compound 0.949 µM) 32.7% | viability, T/C (second compound 9.49 µM, first compound 3 µM) 23.2% | viability, T/C (second compound 30 µM, first compound 0.00949 µM) 66% | viability, T/C (second compound 30 µM, first compound 0.03 µM) 64.2% | viability, T/C (second compound 30 µM, first compound 0.0949 µM) 43.5% | viability, T/C (second compound 30 µM, first compound 0.3 µM) 31.6% | viability, T/C (second compound 30 µM, first compound 0.949 µM) 22.1% | viability, T/C (second compound 30 µM, first compound 3 µM) 16.1%
0.0712 µM: IC50 (second compound 30 µM)
0.178 µM: IC50 (second compound 9.49 µM)
0.26 µM: IC50 (second compound 0.3 µM)
0.161 µM: IC50 (second compound 3 µM)
0.222 µM: IC50 (second compound 0.949 µM)
